Results reported in patent US20150141435A1, “2-PYRIDONE ANTIMICROBIAL COMPOSITIONS” (Emergent BioSolutions, priority 2010, published 2015).
Structures can show the parent of a compound that is named as a salt. Where two headings read alike, the source gives them in different places.

What was measured:
Format in all cases: cell-based
S. aureus ATCC 25923 = test: MIC, CLSI broth microdilution (Table 1); conditions: Staphylococcus aureus
P. aeruginosa ATCC 27853 = test: MIC, CLSI broth microdilution (Table 2); conditions: Pseudomonas aeruginosa
[1] = tested on: S. aureus ATCC 43300 (MRSA, FQ-S); test: MIC, CLSI broth microdilution (Table 1); conditions: Staphylococcus aureus, read-out: MIC S. aureus ATCC 43300 (MRSA, FQ-S)
H. influenzae ATCC 49247 = test: MIC, CLSI broth microdilution (Table 2); conditions: Haemophilus influenzae
E. faecium ATCC 19434 = test: MIC, CLSI broth microdilution (Table 1); conditions: Enterococcus faecium
[2] = tested on: S. aureus BAA-1720 (MRSA, FQ-R); test: MIC, CLSI broth microdilution (Table 1); conditions: Staphylococcus aureus; Gram positive; MHB, 37° C., 16-20 hours; read-out: MIC S. aureus BAA-1720 (MRSA, FQ-R)
A. baumannii ATCC 19606 = test: MIC, CLSI broth microdilution (Table 2); conditions: Acinetobacter baumannii
[3] = tested on: S. maltophilia ATCC 17677; test: MIC, CLSI broth microdilution (Table 2); conditions: Stenotrophomonas maltophilia
S. pneumonia ATCC 49619 = test: MIC, CLSI broth microdilution (Table 1); conditions: Streptococcus pneumoniae
K. pneumoniae ATCC 33495 = test: MIC, CLSI broth microdilution (Table 2); conditions: Klebsiella pneumoniae
E. faecalis ATCC 29212 = test: MIC, CLSI broth microdilution (Table 1); conditions: Enterococcus faecalis
E. coli ATCC 25922 = test: MIC, CLSI broth microdilution (Table 2); conditions: Escherichia coli
[4] = ATCC25923, Gram positive, MHB, 37° C., 16-20 hours, read-out: MIC S. aureus ATCC 25923
[5] = ATCC27853, Gram negative, MHB, 37° C., 16-20 hours, read-out: MIC P. aeruginosa ATCC 27853
[6] = Gram positive, MHB, 37° C., 16-20 hours
[7] = ATCC49247, Gram negative, MHB, 37° C., 16-20 hours, read-out: MIC H. influenzae ATCC 49247
[8] = ATCC19434, Gram positive, MHB, 37° C., 16-20 hours, read-out: MIC E. faecium ATCC 19434
[9] = ATCC19606, Gram negative, MHB, 37° C., 16-20 hours, read-out: MIC A. baumannii B. ATCC 19606
[10] = ATCC17677, Gram negative, MHB, 37° C., 16-20 hours, read-out: MIC S. maltophilia ATCC 17677
[11] = ATCC49619, Gram positive, MHB, 37° C., 16-20 hours, read-out: MIC S. pneumonia ATCC 49619
[12] = ATCC33495, Gram negative, MHB, 37° C., 16-20 hours, read-out: MIC K. pneumoniae ATCC 33495
[13] = ATCC29212, Gram positive, MHB, 37° C., 16-20 hours, read-out: MIC E. faecalis ATCC 29212
[14] = ATCC25922, Gram negative, MHB, 37° C., 16-20 hours, read-out: MIC E. coli ATCC 25922
[15] = ATCC25923, read-out: MIC S. aureus ATCC 25923
[16] = ATCC49247, read-out: MIC H. influenzae ATCC 49247
[17] = ATCC19606, read-out: MIC A. baumannii B. ATCC 19606
[18] = ATCC17677, read-out: MIC S. maltophilia ATCC 17677
[19] = ATCC49619, read-out: MIC S. pneumonia ATCC 49619
[20] = ATCC33495, read-out: MIC K. pneumoniae ATCC 33495
[21] = ATCC29212, read-out: MIC E. faecalis ATCC 29212
[22] = ATCC25922, read-out: MIC E. coli ATCC 25922

Row | SMILES | MIC (S. aureus ATCC 25923; [4]) [µg/mL] | MIC (P. aeruginosa ATCC 27853; [5]) [µg/mL] | MIC [1, 6] [µg/mL] | MIC (H. influenzae ATCC 49247; [7]) [µg/mL] | MIC (E. faecium ATCC 19434; [8]) [µg/mL] | MIC [2] [µg/mL] | MIC (A. baumannii ATCC 19606; [9]) [µg/mL] | MIC [3, 10] [µg/mL] | MIC (S. pneumonia ATCC 49619; [11]) [µg/mL] | MIC (K. pneumoniae ATCC 33495; [12]) [µg/mL] | MIC (E. faecalis ATCC 29212; [13]) [µg/mL] | MIC (E. coli ATCC 25922; [14]) [µg/mL] | further results
1 | Cc1c(-c2cccc(N)c2)c(F)cn2c(=O)c(C(=O)O)cc(C3CC3)c12 [Example 4 K salt, 8-(3-amino-phenyl)-1-cyclopropyl-7-fluoro-9-methyl-4-oxo-4H-quinolizine-3-carboxylic acid] | 0.016 | 8 | 0.016 | 0.008 | 1 | 0.25 | 0.125 | 0.25 | 0.125 | 0.25 | 0.032 | 0.125 | –
2 | Cc1c(-c2ccc(N)cc2)c(F)cn2c(=O)c(C(=O)O)cc(C3CC3)c12 [Example 5 K salt, 8-(4-amino-phenyl)-1-cyclopropyl-7-fluoro-9-methyl-4-oxo-4H-quinolizine-3-carboxylic acid] | – | – | – | – | – | – | – | – | – | – | – | – | MIC (S. aureus ATCC 25923; [15]): 0.008 µg/mL; MIC (P. aeruginosa ATCC 27853; ATCC27853, read-out: MIC P. aeruginosa ATCC 27853): 2 µg/mL; MIC [1]: 0.008 µg/mL; MIC (H. influenzae ATCC 49247; [16]): ≤ 0.004 µg/mL; MIC (E. faecium ATCC 19434; ATCC19434, read-out: MIC E. faecium ATCC 19434): 0.5 µg/mL; MIC (A. baumannii ATCC 19606; [17]): 0.064 µg/mL; MIC [3, 18]: 0.125 µg/mL; MIC (S. pneumonia ATCC 49619; [19]): 0.032 µg/mL; MIC (K. pneumoniae ATCC 33495; [20]): 0.125 to 0.25 µg/mL; MIC (E. faecalis ATCC 29212; [21]): 0.016 to 0.032 µg/mL; MIC (E. coli ATCC 25922; [22]): 0.064 µg/mL
3 | Cc1c(-c2ccc(C(N)=O)cc2)c(F)cn2c(=O)c(C(=O)O)cc(C3CC3)c12 [Example 6 K salt, 8-(4-carbamoyl-phenyl)-1-cyclopropyl-7-fluoro-9-methyl-4-oxo-4H-quinolizine-3-carboxylic acid] | – | – | – | – | – | – | – | – | – | – | – | – | MIC (S. aureus ATCC 25923; [15]): 0.008 to 0.016 µg/mL; MIC [1]: 0.008 µg/mL; MIC (H. influenzae ATCC 49247; [16]): ≤ 0.004 µg/mL; MIC (A. baumannii ATCC 19606; [17]): 0.5 µg/mL; MIC [3, 18]: 0.5 µg/mL; MIC (S. pneumonia ATCC 49619; [19]): 0.032 µg/mL; MIC (K. pneumoniae ATCC 33495; [20]): 0.5 µg/mL; MIC (E. faecalis ATCC 29212; [21]): 0.016 µg/mL; MIC (E. coli ATCC 25922; [22]): 0.125 µg/mL
4 | Cc1c(-c2ccc(N)cc2F)ccn2c(=O)c(C(=O)O)cc(C3CC3)c12 [Example 7 K salt, 8-(4-amino-2-fluoro-phenyl)-1-cyclopropyl-9-methyl-4-oxo-4H-quinolizine-3-carboxylic acid] | 0.008 | 4 | 0.008 | 0.008 | 0.5 | 0.25 | 0.125 | 0.25 | 0.032 to 0.064 | 0.125 to 0.25 | 0.032 | 0.064 | –
5 | Cc1c(-c2cccc(F)c2)ccn2c(=O)c(C(=O)O)cc(C3CC3)c12 [Example 10 K salt, 1-cyclopropyl-8-(3-fluoro-phenyl)-9-methyl-4-oxo-4H-quinolizine-3-carboxylic acid] | 0.008 | 2 | 0.008 | 0.008 | 0.5 | 0.5 | 0.25 | 0.25 to 0.5 | 0.125 | 0.25 | 0.032 | 0.125 | –
6 | Cc1c(-c2ccc(N)c(Cl)c2)ccn2c(=O)c(C(=O)O)cc(C3CC3)c12 [Example 11 K salt, 8-(4-amino-3-chloro-phenyl)-1-cyclopropyl-9-methyl-4-oxo-4H-quinolizine-3-carboxylic acid] | ≤ 0.004 | 2 | ≤ 0.004 | ≤ 0.004 | 0.25 | 0.125 | 0.064 | 0.125 | 0.032 | 0.125 | 0.016 | 0.064 | –
7 | COc1cc(-c2ccn3c(=O)c(C(=O)O)cc(C4CC4)c3c2C)ccc1N [Example 12 K salt, 8-(4-amino-3-methoxy-phenyl)-1-cyclopropyl-9-methyl-4-oxo-4H-quinolizine-3-carboxylic acid] | 0.016 to 0.032 | 8 | 0.016 | 0.032 | 1 | 0.5 to 1 | 0.25 to 0.5 | 0.5 | 0.25 | 0.5 | 0.064 | 0.25 | –
8 | CC(=O)Nc1ccc(-c2ccn3c(=O)c(C(=O)O)cc(C4CC4)c3c2C)cc1 [Example 13 K salt, 8-(4-acetamido-phenyl)-1-cyclopropyl-9-methyl-4-oxo-4H-quinolizine-3-carboxylic acid] | 0.008 to 0.016 | 8 | 0.008 | 0.016 | 0.5 | 0.25 | 0.5 | 0.5 | 0.032 | 0.5 | 0.016 | 0.125 | –
9 | Cc1c(-c2ccc(NS(C)(=O)=O)cc2)ccn2c(=O)c(C(=O)O)cc(C3CC3)c12 [Example 14 K salt, 1-cyclopropyl-9-methyl-8-(4-(methylsulfonamido)-phenyl)-4-oxo-4H-quinolizine-3-carboxylic acid] | 0.016 | > 8 | 0.016 | 0.016 | 8 | 0.5 | 0.5 to 1 | 1 | 0.125 | 1 | 0.064 | 0.25 | –
10 | CNc1ccc(-c2ccn3c(=O)c(C(=O)O)cc(C4CC4)c3c2C)cc1 [Example 15 K salt, 1-cyclopropyl-9-methyl-8-(4-(methylamino)-phenyl)-4-oxo-4H-quinolizine-3-carboxylic acid] | 0.016 | > 8 | 0.016 | 0.016 to 0.032 | > 8 | 1 | 0.5 to 1 | 0.5 | 0.064 | 1 | 0.032 | 0.125 | –
